Data: ChEMBL document CHEMBL1150714, “1,3,7-Trimethylguanine from the Sponge Latrunculia brevis” (J Nat Prod, 1987)

System: P388
Assay: Cytotoxicity against mouse P388 cells
Format: functional, cell-based

Work on `Cn1c(=O)c2c(ncn2C)n(C)c1=N` yielded an EC50 greater than 10 µg/mL.
